One experiment concerns the target T1, 5-HT reuptake sites (Rattus norvegicus, UniProt P31652).
T1 construct: Frontal cortical tissue from the brains of male Charles River rats; from tissue; host or cells: rat frontal cortical membranes
Nature of the experiment: 5-HT uptake: displacement of [3H]citalopram from 5-HT reuptake sites, rat frontal cortical membranes. The class given is binding. The conditions noted are these: for inhibition at 1 µM: 10^−6 M test compound, single determination, [3H]citalopram; for Ki: [3H]citalopram 1.3 nM, rat frontal cortical membranes, fit to data from three experiments. As to the method:
Frontal cortical tissue from the brains of male Charles River rats weighing 150-250 g was homogenised in ice-cold 50 mM Tris-HCl, pH 7.4 (when measured at 25° C.) containing 120 mM sodium chloride and 5 mM potassium chloride (Tris buffer; 1:30 w/v) and centrifuged at 40,000 g for 10 minutes. The supernatant was discarded and the pellet rehomogenised in Tris buffer, 1:60 w/v, and centrifuged at 40,000 g for 10 minutes. This step was repeated a further time. The final pellet was resuspended in 50 mM Tris-HCl, pH 7.4 containing 120 mM sodium chloride and 5 mM potassium chloride (equivalent to 3.125 mg wet weight of tissue/ml) and used immediately in the binding assay. All centrifugations were performed at 4° C.
Membranes (400 μl; equivalent to 1.25 mg wet weight of tissue/tube) were incubated with 50 μl [^3H]citalopram at a single concentration of 1.3 nM and 50 μl of distilled water (total binding) or 50 μl of test compound (at a single concentration of 10^−6 M or at 10 concentrations ranging from 10^−11-10^−3 M) or 50 μl of paroxetine (0.5 μM; non-specific binding) for 1 h at 27° C. Membrane bound radioactivity was recovered by filtration under vacuum through Skatron 11734 filters presoaked in 0.5% PEI using a Skatron Cell Harvester. Filters were then washed in ice-cold 50 mM Tris-HCl buffer, pH 7.4 (at 25° C., wash setting 9,9,0). The scored filter paper discs were punched out into vials, scintillation fluid added and radioactivity determined by liquid scintillation counting.
(§1) For each of these tests measuring the ability of compounds of Formula I to displace standard ligands from 5-HT1A receptors and 5-hydroxytryptamine (5-HT) and noradrenaline (NA) reuptake sites and muscarinic receptors in vitro, the percentage displacement of specific binding of tritiated ligand by 10^−6 M test compound was calculated in the following way.
(§2) Firstly, specific binding of tritiated ligand in the absence (A) and presence (B) of test compound was determined:
(§3) In the absence of compound: A(dpm)=Total binding (dpm)−Non-specific binding (dpm) In the presence of compound (10^−6 M): B(dpm)=Binding at 10^−6M (dpm)−Non-specific binding (dpm)
(§4) The specific binding of tritiated ligand in the presence (B) of compound was then converted to a percentage of specific binding of tritiated ligand in the absence (A) of compound: % Specific binding at 10^−6 M=B(dpm)/A(dpm)×100
(§5) The percentage displacement of specific binding of tritiated ligand by the test compound (10^−6 M) was then obtained by subtraction of the percentage specific binding in the presence of compound from the percentage specific binding in the absence of compound, which is taken as the maximum binding and so equals 100%:
(§6) % Displacement at 10^−6 M=100−% Specific binding at 10^−6 M.
(§7) In some cases, displacement curves were then produced for compounds which displaced ≧50% of specific binding of the tritiated ligand at 10^−6 M using a range of concentrations of the compound. The Ki was then calculated by simultaneous fitting using equations derived from the Feldman equations by robust non-linear regression to data from three experiments simultaneously (De Lean et al., 1978; Munson and Rodbard, 1980; Feldman, 1992). Munson P J and Rodbard D. Ligand: a versatile computerised approach for characterisation of ligand binding systems. Anal Biochem 1980; 107: 220. Feldman HA. Mathematical theory of complex ligand binding systems at equilibrium: some methods for parameter fitting. Anal Biochem 1992: 48, 317. De Lean A, Munson P J and Rodbard D. Simultaneous analysis of families of sigmoidal curves: application to bioassay, radioligand assay, and physiological dose-response curves. Am J Physiol 1978: 235 (2), E97-E102.
(§8) The results obtained in the above tests for 5-HT1A binding and 5-HT and NA uptake and muscarinic binding for the final products of Examples 1-39 hereinafter are given in Table 1 below. Kis are in nM. % Figures are for % displacement at 10^−6 M for a single determination.
On the technique in general: Loss of bound radioactivity is the signal in a displacement assay; it reports binding, not function.

A further experiment deals with T2, 5-HT1A receptors (Rattus norvegicus, UniProt P19327).
T2 construct: Hippocampal tissue from the brains of male Sprague-Dawley rats; from tissue; host or cells: rat hippocampal membranes
T2 sequence (P19327 1-422): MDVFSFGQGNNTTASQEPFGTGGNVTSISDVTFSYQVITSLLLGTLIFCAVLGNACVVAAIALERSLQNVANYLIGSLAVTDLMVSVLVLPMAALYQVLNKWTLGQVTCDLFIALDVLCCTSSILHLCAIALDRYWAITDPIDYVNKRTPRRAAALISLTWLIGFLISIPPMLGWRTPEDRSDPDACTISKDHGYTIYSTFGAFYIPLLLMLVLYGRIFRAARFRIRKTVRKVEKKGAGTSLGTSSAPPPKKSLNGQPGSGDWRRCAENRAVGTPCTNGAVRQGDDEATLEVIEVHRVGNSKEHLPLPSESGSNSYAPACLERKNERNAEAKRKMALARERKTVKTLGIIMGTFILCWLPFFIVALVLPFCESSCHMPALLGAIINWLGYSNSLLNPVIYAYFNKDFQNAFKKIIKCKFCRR
Briefly: 5-HT1A binding: inhibition of [3H]8-OH-DPAT binding to rat hippocampal membranes. The conditions noted are these: for inhibition at 1 µM: read-out: 5-HT1A % displacement at 10^−6 M; for Ki: [3H]8-OH-DPAT 1 nM, rat hippocampal membranes, fit to data from three experiments. As to the method:
Hippocampal tissue from the brains of male Sprague-Dawley rats (Charles River; weight range 150-250 g) was homogenised in ice-cold 50 mM Tris-HCl buffer (pH 7.7 when measured at 25° C., 1:40 w/v) and centrifuged at 40,000 g at 4° C. for 10 minutes. The pellet was rehomogenised in the same buffer, incubated at 37° C. for 10 minutes and centrifuged at 40,000 g at 4° C. for 10 minutes. The final pellet was resuspended in 50 mM Tris-HCl buffer (pH 7.7) containing 4 mM CaCl2, 0.1% L-ascorbic acid and 10 μM pargyline hydrochloride (equivalent to 6.25 mg wet weight of tissue/ml) and used immediately in the binding assay.
Membranes (400 μl; equivalent to 2.5 mg wet weight of tissue/tube) were incubated with 50 μl of [^3H]8-hydroxy-2-(dipropylamino)tetralin ([^3H]8-OH-DPAT) at a single concentration of 1 nM and 50 μl of distilled water (total binding) or 50 μl of test compound (at a single concentration of 10^−6 M or at 10 concentrations ranging from 10^−11-10^−3 M) or 50 μl of 5-HT (10 μM, non-specific binding) at 25° C. for 30 minutes. The incubation was terminated by rapid filtration under vacuum through Skatron 11734 filters using a Skatron Cell Harvester. Filters were washed with ice-cold 50 mM Tris-HCl buffer, pH 7.7 (at 25° C., wash setting 9,9,0). The scored filter paper discs were punched out into vials, scintillation fluid added and radioactivity determined by liquid scintillation counting.
as §1, §2, §3, §4, §5, §6, §7, §8

Read-outs that look alike come from different tables or passages of the source.

T1 sequence (P31652 whole entry): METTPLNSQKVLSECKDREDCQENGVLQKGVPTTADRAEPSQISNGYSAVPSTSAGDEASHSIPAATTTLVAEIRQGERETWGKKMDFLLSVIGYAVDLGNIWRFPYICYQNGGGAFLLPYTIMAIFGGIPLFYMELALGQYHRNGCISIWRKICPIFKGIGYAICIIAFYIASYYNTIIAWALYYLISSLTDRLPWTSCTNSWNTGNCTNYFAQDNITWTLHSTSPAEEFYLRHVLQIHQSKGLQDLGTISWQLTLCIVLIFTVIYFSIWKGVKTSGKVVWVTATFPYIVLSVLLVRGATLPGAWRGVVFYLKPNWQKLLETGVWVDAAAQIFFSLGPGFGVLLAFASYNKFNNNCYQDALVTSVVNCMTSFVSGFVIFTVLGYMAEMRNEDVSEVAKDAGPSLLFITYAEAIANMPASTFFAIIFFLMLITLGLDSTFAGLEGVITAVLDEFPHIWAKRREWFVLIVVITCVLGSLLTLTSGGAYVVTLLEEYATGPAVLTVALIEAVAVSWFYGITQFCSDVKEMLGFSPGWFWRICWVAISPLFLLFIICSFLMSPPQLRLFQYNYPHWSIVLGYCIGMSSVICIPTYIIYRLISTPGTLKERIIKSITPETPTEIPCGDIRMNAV

Turning to `CSC1=C(c2ccc3sccc3c2)N2CCN=C2S1` [Example 30, 3-(benzo[b]thiophen-5-yl)-2-(methylthio)-5,6-dihydroimidazo[2,1-b]thiazole], the inhibition at 1 µM on 5-HT reuptake sites came out at 95%; on 5-HT1A receptors (10^−6 M test compound, single determination, [3H]8-OH-DPAT), 66%.
The term Ki denotes a dissociation constant, usually derived from enzyme kinetics or from competition with a known ligand. Read a high Ki as weaker binding. Consider `CSC1=C(c2cccc3sccc23)N2CCN=C2S1.Cl` [Example 22, 3-(benzo[b]thiophen-4-yl)-2-(methylthio)-5,6-dihydroimidazo[2,1-b]thiazole hydrochloride], for which, at 5-HT reuptake sites, the Ki was 85 nM. Moreover, the inhibition at 1 µM on 5-HT1A receptors was determined as 88%.
Take `Br.CC1(c2cc3cc(F)ccc3s2)CSC2=NCCN21` (centres unmarked) [Example 27, 3-(5-fluorobenzo[b]thiophen-2-yl)-3-methyl-5,6-dihydroimidazo[2,1-b]thiazole hydrobromide]: the inhibition at 1 µM at 5-HT reuptake sites is 85%; on 5-HT1A receptors, 88%.
Turning to `Br.CC1=C(c2cccc3sccc23)N2CCN=C2S1` [Example 8, 3-(benzo[b]thiophen-4-yl)-2-methyl-5,6-dihydroimidazo[2,1-b]thiazole hydrobromide], the values for the inhibition constant (Ki) on 5-HT reuptake sites and at 5-HT1A receptors were 275 nM and 14.3 nM, respectively.
On to `Br.CCC1=C(c2cc3c(Cl)cccc3s2)N2CCN=C2S1` [Example 18, 3-(4-chlorobenzo[b]thiophen-2-yl)-2-ethyl-5,6-dihydroimidazo[2,1-b]thiazole hydrobromide], for which the inhibition at 1 µM on 5-HT reuptake sites and at 5-HT1A receptors was 96% throughout.
`Cl.Fc1cccc2sc(C3=CSC4=NCCN34)cc12` [Example 5, 3-(4-fluorobenzo[b]thiophen-2-yl)-5,6-dihydroimidazo[2,1-b]thiazole hydrochloride]: the inhibition at 1 µM was determined as 95% at 5-HT reuptake sites and 55% on 5-HT1A receptors.
For the molecule `Br.CC1=C(c2cc3c(F)cccc3s2)N2CCN=C2S1` [Example 7, 3-(4-fluorobenzo[b]thiophen-2-yl)-2-methyl-5,6-dihydroimidazo[2,1-b]thiazole hydrobromide], the Ki on 5-HT reuptake sites is 127 nM; at 5-HT1A receptors it was 11.7 nM.
As to `Br.COc1cccc2cc(C3=C(C)SC4=NCCN43)sc12` [Example 26, 3-(7-methoxybenzo[b]thiophen-2-yl)-2-methyl-5,6-dihydroimidazo[2,1-b]thiazole hydrobromide], the results for the inhibition at 1 µM on 5-HT reuptake sites and on 5-HT1A receptors were 64% and 90%, respectively.
Consider `CC(C)C1=C(c2ccc3sccc3c2)N2CCN=C2S1` [Example 29, 3-(benzo[b]thiophen-5-yl)-2-(1-methylethyl)-5,6-dihydroimidazo[2,1-b]-thiazole], for which the figures for the Ki on 5-HT reuptake sites and at 5-HT1A receptors were 4.1 nM and 83 nM, respectively.
Taken in the same sequence, the figures for `C1=C(c2cccc3sccc23)N2CCN=C2S1.Cl` [Example 2, 3-(benzo[b]thiophen-4-yl)-5,6-dihydroimidazo[2,1-b]thiazole hydrochloride] were 45 nM and 86 nM.
Taken in the same sequence, the figures for `OCC1=C(c2ccc3sccc3c2)N2CCN=C2S1` [Example 28, [3-(benzo[b]thiophen-5-yl)-5,6-dihydroimidazo[2,1-b]-thiazol-2-yl]methanol] were 148 nM and 38.5 nM.
Taken in the same sequence, the figures for `CSC1=C(c2cc3ccccc3s2)N2CCN=C2S1` [Example 19, 3-(benzo[b]thiophen-2-yl)-2-(methylthio)-5,6-dihydroimidazo[2,1-b]thiazole] were 39 nM and 134 nM.
For `Br.CC1=C(c2cc3c(C)cccc3s2)N2CCN=C2S1` [Example 16, 2-methyl-3-(4-methylbenzo[b]thiophen-2-yl)-5,6-dihydroimidazo[2,1-b]thiazole hydrobromide], the inhibition at 1 µM on 5-HT reuptake sites came out at 93%; at 5-HT1A receptors, 97%.
In the same order, the values of `Br.CC1=C(c2cc3c(Cl)c(Cl)ccc3s2)N2CCN=C2S1` [Example 24, 3-(4,5-dichlorobenzo[b]thiophen-2-yl)-2-methyl-5,6-dihydroimidazo[2,1-b]-thiazole hydrobromide] are 97% and 76%.
For the molecule `Br.CC1=C(c2cc3cccc(Cl)c3s2)N2CCN=C2S1` [Example 20, 3-(7-chlorobenzo[b]thiophen-2-yl)-2-methyl-5,6-dihydroimidazo[2,1-b]thiazole hydrobromide], the values for the inhibition at 1 µM at 5-HT reuptake sites and at 5-HT1A receptors were 73% and 98%, respectively.
Take `Br.C=CCC1=C(c2cccc3sccc23)N2CCN=C2S1` [Example 36, 2-allyl-3-(benzo[b]thiophen-4-yl)-5,6-dihydroimidazo[2,1-b]thiazole hydrobromide]: the Ki on 5-HT reuptake sites was determined as 89 nM; on 5-HT1A receptors it was 40 nM.
With `CC1=C(c2cccc3ccsc23)N2CCN=C2S1.Cl` [Example 23, 3-(benzo[b]thiophen-7-yl)-2-methyl-5,6-dihydroimidazo[2,1-b]thiazole hydrochloride], the inhibition constant Ki was determined as 229 nM at 5-HT reuptake sites and 20 nM on 5-HT1A receptors.
Consider `Br.CC1=C(c2ccc3ccsc3c2)N2CCN=C2S1` [Example 37, 3-(benzo[b]thiophen-6-yl)-2-methyl-5,6-dihydroimidazo[2,1-b]thiazole hydrobromide], for which the results for the inhibition constant (Ki) at 5-HT reuptake sites and at 5-HT1A receptors were 213 nM and 2.1 nM, respectively.
Taken in the same sequence, the figures for `CC1=C(c2cccc3sccc23)N2CCN=C2S1.Cl` [Example 9, 3-(benzo[b]thiophen-4-yl)-2-methyl-5,6-dihydroimidazo[2,1-b]thiazole hydrochloride] were 387 nM and 15 nM.

The values above are taken from patent US6900216B2, “Dihydroimidazo[2,1-b]thiazole and dihydro-5h-thiazolo[3,2-A]pyrimidines as antidepressant agents” (Knoll GmbH, priority 2000, dated 2005).
